Experimental data as given in ChEMBL document CHEMBL1125863, “New aromatase inhibitors. Synthesis and biological activity of pyridyl-substituted tetralone derivatives” (J Med Chem, 1991).
“And” between values parts separate entries of the source, which are not always exact repeats. Identical values can stand only once.

Key:
[1] = species on record: Rattus norvegicus; conditions: Heart right ventricle
[2] = species on record: Rattus norvegicus; conditions: Heart right ventricle; remark: listed apart in the source
[3] = species on record: Rattus norvegicus; conditions: Heart right ventricle; remark: listed apart in the source
[4] = species on record: Rattus norvegicus; conditions: Heart right ventricle; remark: listed apart in the source
[5] = species on record: Rattus norvegicus; conditions: Heart right ventricle; remark: listed apart in the source
[6] = species on record: Rattus norvegicus; conditions: Heart right ventricle; remark: listed apart in the source
[7] = species on record: Rattus norvegicus; conditions: Heart right ventricle; remark: listed apart in the source
[8] = species on record: Rattus norvegicus; conditions: Heart right ventricle; remark: listed apart in the source
[9] = species on record: Rattus norvegicus; conditions: Heart right ventricle; remark: listed apart in the source
[10] = species on record: Rattus norvegicus; conditions: Heart right ventricle; remark: listed apart in the source
[11] = species on record: Rattus norvegicus; conditions: Ovarian vein
[12] = target: T1, Aromatase (Rattus norvegicus, UniProt P22443)
T1 sequence (P22443 whole entry): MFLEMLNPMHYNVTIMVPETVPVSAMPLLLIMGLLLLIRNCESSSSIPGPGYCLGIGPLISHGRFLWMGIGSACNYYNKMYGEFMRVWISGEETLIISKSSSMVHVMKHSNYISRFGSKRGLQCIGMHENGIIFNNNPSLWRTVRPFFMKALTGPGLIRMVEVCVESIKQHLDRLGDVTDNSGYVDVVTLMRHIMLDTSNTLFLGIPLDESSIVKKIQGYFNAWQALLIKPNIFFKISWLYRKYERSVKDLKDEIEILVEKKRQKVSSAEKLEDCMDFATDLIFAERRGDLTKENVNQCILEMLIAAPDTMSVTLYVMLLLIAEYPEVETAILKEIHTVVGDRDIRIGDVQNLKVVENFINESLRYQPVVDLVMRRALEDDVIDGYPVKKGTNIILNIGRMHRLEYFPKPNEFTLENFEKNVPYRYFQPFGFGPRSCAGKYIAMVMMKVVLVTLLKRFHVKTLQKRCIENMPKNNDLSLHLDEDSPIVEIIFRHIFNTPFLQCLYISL

[13] = species on record: Rattus norvegicus; conditions: Heart right ventricle; remark: listed apart in the source
[14] = species on record: Rattus norvegicus; format: functional; conditions: dose 20 mg/kg
[15] = species on record: Rattus norvegicus; format: functional; conditions: dose 20 mg/kg; remark: listed apart in the source
[16] = species on record: Rattus norvegicus; format: functional; conditions: dose 20 mg/kg; remark: listed apart in the source
[17] = species on record: Rattus norvegicus; format: functional; conditions: dose 20 mg/kg; remark: listed apart in the source
[18] = species on record: Rattus norvegicus; format: functional; conditions: dose 20 mg/kg; remark: listed apart in the source
[19] = species on record: Rattus norvegicus; format: functional; conditions: dose 20 mg/kg; remark: listed apart in the source
[20] = species on record: Rattus norvegicus; format: functional; conditions: dose 20 mg/kg; remark: listed apart in the source
[21] = species on record: Rattus norvegicus; format: functional; conditions: dose 10.9 mg/kg
[22] = species on record: Rattus norvegicus; format: functional; conditions: dose 10.9 mg/kg; remark: listed apart in the source
[23] = species on record: Rattus norvegicus; format: functional; conditions: dose 10.9 mg/kg; remark: listed apart in the source
[24] = species on record: Rattus norvegicus; format: functional; conditions: dose 10.9 mg/kg; remark: listed apart in the source
[25] = species on record: Rattus norvegicus; format: functional; conditions: dose 10.9 mg/kg; remark: listed apart in the source
[26] = species on record: Rattus norvegicus; format: functional; conditions: dose 10.9 mg/kg; remark: listed apart in the source
[27] = species on record: Rattus norvegicus; format: functional; conditions: dose 10.9 mg/kg; remark: listed apart in the source
[28] = species on record: Rattus norvegicus; conditions: Heart right ventricle; remark: listed apart in the source
[29] = species on record: Rattus norvegicus; conditions: Heart right ventricle; remark: listed apart in the source
[30] = species on record: Rattus norvegicus; format: functional; conditions: dose 10.2 mg/kg
[31] = species on record: Rattus norvegicus; format: functional; conditions: dose 10.2 mg/kg; remark: listed apart in the source
[32] = species on record: Rattus norvegicus; format: functional; conditions: dose 10.2 mg/kg; remark: listed apart in the source
[33] = species on record: Rattus norvegicus; format: functional; conditions: dose 10.2 mg/kg; remark: listed apart in the source
[34] = species on record: Rattus norvegicus; format: functional; conditions: dose 10.2 mg/kg; remark: listed apart in the source
[35] = species on record: Rattus norvegicus; format: functional; conditions: dose 10.2 mg/kg; remark: listed apart in the source
[36] = species on record: Rattus norvegicus; format: functional; conditions: dose 10.2 mg/kg; remark: listed apart in the source
[37] = species on record: Rattus norvegicus; format: functional; conditions: dose 11.4 mg/kg
[38] = species on record: Rattus norvegicus; format: functional; conditions: dose 11.4 mg/kg; remark: listed apart in the source
[39] = species on record: Rattus norvegicus; format: functional; conditions: dose 11.4 mg/kg; remark: listed apart in the source
[40] = species on record: Rattus norvegicus; format: functional; conditions: dose 11.4 mg/kg; remark: listed apart in the source
[41] = species on record: Rattus norvegicus; format: functional
[42] = species on record: Rattus norvegicus; format: functional; conditions: dose 11.4 mg/kg; remark: listed apart in the source
[43] = species on record: Rattus norvegicus; format: functional; conditions: dose 11.4 mg/kg; remark: listed apart in the source
[44] = species on record: Rattus norvegicus; format: functional; conditions: dose 10.1 mg/kg
[45] = species on record: Rattus norvegicus; format: functional; conditions: dose 10.1 mg/kg; remark: listed apart in the source
[46] = species on record: Rattus norvegicus; format: functional; conditions: dose 10 mg/kg
[47] = species on record: Rattus norvegicus; format: functional; conditions: dose 10.1 mg/kg; remark: listed apart in the source
[48] = species on record: Rattus norvegicus; format: functional; conditions: dose 10.1 mg/kg; remark: listed apart in the source
[49] = species on record: Rattus norvegicus; format: functional; conditions: dose 10.1 mg/kg; remark: listed apart in the source
[50] = species on record: Rattus norvegicus; format: functional; conditions: dose 10.1 mg/kg; remark: listed apart in the source
[51] = species on record: Rattus norvegicus; format: functional; conditions: dose 10 mg/kg; remark: listed apart in the source
[52] = species on record: Rattus norvegicus; format: functional; conditions: dose 10 mg/kg; remark: listed apart in the source
[53] = species on record: Rattus norvegicus; format: functional; conditions: dose 10 mg/kg; remark: listed apart in the source
[54] = species on record: Rattus norvegicus; format: functional; conditions: dose 10 mg/kg; remark: listed apart in the source
[55] = species on record: Rattus norvegicus; format: functional; conditions: dose 10 mg/kg; remark: listed apart in the source
[56] = species on record: Rattus norvegicus; format: functional; conditions: dose 10 mg/kg; remark: listed apart in the source
[57] = species on record: Rattus norvegicus; format: functional; conditions: dose 11.5 mg/kg
[58] = species on record: Rattus norvegicus; format: functional; conditions: dose 11.5 mg/kg; remark: listed apart in the source
[59] = species on record: Rattus norvegicus; format: functional; conditions: dose 11.5 mg/kg; remark: listed apart in the source
[60] = species on record: Rattus norvegicus; format: functional; conditions: dose 11.5 mg/kg; remark: listed apart in the source
[61] = species on record: Rattus norvegicus; format: functional; conditions: dose 11.5 mg/kg; remark: listed apart in the source
[62] = species on record: Rattus norvegicus; format: functional; conditions: dose 11.5 mg/kg; remark: listed apart in the source
[63] = species on record: Rattus norvegicus; format: functional; conditions: dose 11.5 mg/kg; remark: listed apart in the source

COc1cccc2c1CCC(Cc1ccncc1)C2=O (configuration not stated)
Plasma-E2 concentration [1]: 542 pg/mL | Plasma-E2 concentration [2]: 1250 pg/mL | Plasma-E2 concentration [3]: 990 pg/mL | Plasma-E2 concentration [4]: 1040 pg/mL | Plasma-E2 concentration [5]: 458 pg/mL | Plasma-E2 concentration [6]: 576 pg/mL | Plasma-E2 concentration [7]: 639 pg/mL | Plasma-E2 concentration [8]: 894 pg/mL | Plasma-E2 concentration [9]: 882 pg/mL | Plasma-E2 concentration [10]: 851 pg/mL | Plasma-E2 concentration [11]: 3950 pg/mL | IC50 [12]: 8 µM | Plasma-E2 concentration [13]: 1460 pg/mL and 902 pg/mL

CCC(=O)O[C@H]1CC[C@H]2[C@@H]3CCC4=CC(=O)CC[C@]4(C)[C@H]3CC[C@]12C [TESTOSTERONE PROPIONATE]
Tumors with CR [14]: 25% | No. of tumors [15]: 12 | Tumors with CR [16]: 19% | Tumors with CR [17]: 36% | Change of tumor area [18]: 141% | No. of tumors [19]: 36 | Tumors with CR [20]: 19%

CCC(=O)O[C@H]1CC[C@H]2[C@@H]3CCC4=CC(=O)CC[C@]4(C)[C@H]3CC[C@]12C.O=C1c2cccc(O)c2CCC1Cc1ccncc1
Tumors with CR [21]: 21% | No. of tumors [22]: 33 | Tumors with CR [23]: 45% | No. of tumors [24]: 3 | Tumors with CR [25]: 6% | Tumors with CR [26]: 27% | Change of tumor area [27]: 61%

O=C1c2ccccc2CCC1Cc1ccncc1 (configuration not stated)
Plasma-E2 concentration [28]: 717 pg/mL | Plasma-E2 concentration [11]: 3700 pg/mL

O=C1/C(=C/c2ccncc2)CCc2c(O)cccc21
Plasma-E2 concentration [1]: 524 pg/mL | Plasma-E2 concentration [11]: 4040 pg/mL

CCC1(c2ccc(N)cc2)CCC(=O)NC1=O (configuration not stated)
Plasma-E2 concentration [29]: 164 pg/mL | Plasma-E2 concentration [6]: 272 pg/mL | Plasma-E2 concentration [13]: 843 pg/mL and 500 pg/mL

CCC(=O)O[C@H]1CC[C@H]2[C@@H]3CCC4=CC(=O)CC[C@]4(C)[C@H]3CC[C@]12C.O=C1c2ccccc2CCC1Cc1ccncc1
Tumors with CR [30]: 10% | Tumors with CR [31]: 45% | Tumors with CR [32]: 32% | No. of tumors [33]: 31 | No. of tumors [34]: 8 | Tumors with CR [35]: 13% | Change of tumor area [36]: 41%

CCC(=O)O[C@H]1CC[C@H]2[C@@H]3CCC4=CC(=O)CC[C@]4(C)[C@H]3CC[C@]12C.COc1cccc2c1CC/C(=C\c1ccncc1)C2=O
Tumors with CR [37]: 11% | Tumors with CR [38]: 29% | Change of tumor area [39]: 115% | Tumors with CR [40]: 50% | Tumors with CR [41]: 11% | No. of tumors [42]: 9 | No. of tumors [43]: 28

CCC(=O)O[C@H]1CC[C@H]2[C@@H]3CCC4=CC(=O)CC[C@]4(C)[C@H]3CC[C@]12C.O=C1/C(=C/c2ccncc2)CCc2ccccc21
Tumors with CR [44]: 20% | No. of tumors [45]: 6 | Change of tumor area [46]: 2% | Tumors with CR [47]: 20% | Tumors with CR [48]: 20% | Tumors with CR [49]: 40% | No. of tumors [50]: 30

O=C1c2cccc(O)c2CCC1Cc1ccncc1 (stereo in doubt; 12)
Plasma-E2 concentration [1]: 472 pg/mL | Plasma-E2 concentration [11]: 3700 pg/mL | IC50 [12]: 2 µM

CCC(=O)O[C@H]1CC[C@H]2[C@@H]3CCC4=CC(=O)CC[C@]4(C)[C@H]3CC[C@]12C.CCC1(c2ccc(N)cc2)CCC(=O)NC1=O
No. of tumors [51]: 35 | Tumors with CR [52]: 23% | Tumors with CR [53]: 54% | Change of tumor area [46]: 4% | Tumors with CR [54]: 17% | Tumors with CR [55]: 6% | No. of tumors [56]: 7

CCC(=O)O[C@H]1CC[C@H]2[C@@H]3CCC4=CC(=O)CC[C@]4(C)[C@H]3CC[C@]12C.COc1cccc2c1CCC(Cc1ccncc1)C2=O
Tumors with CR [57]: 12% | Tumors with CR [58]: 35% | Tumors with CR [59]: 24% | No. of tumors [60]: 11 | Tumors with CR [61]: 29% | No. of tumors [62]: 34 | Change of tumor area [63]: 50%
